# Measured values from ChEMBL document CHEMBL1154899, “Synthesis and biological evaluation of caffeic acid 3,4-dihydroxyphenethyl ester” (J Nat Prod, 2010).
# Experiments:
# Format in all cases: functional
# UO-31 [1] = assay: Antiproliferative activity against human UO31 cells by SRB assay
# HCT-116 = assay: Antiproliferative activity against human HCT116 cells assessed as cell growth at 500 uM by SRB assay; conditions: read-out: Activity
# KM12 [2] = assay: Antiproliferative activity against human KM12 cells assessed as cell growth at 500 uM by SRB assay; conditions: read-out: Activity
# SR = assay: Antiproliferative activity against human SR cells assessed as cell growth at 500 uM by SRB assay; conditions: read-out: Activity
# SK-MEL-2 [3] = assay: Antiproliferative activity against human SK-MEL-2 cells by SRB assay
# CCRF-CEM [4] = assay: Antiproliferative activity against human CCRF-CEM cells by SRB assay
# SK-MEL-5 = assay: Antiproliferative activity against human SK-MEL-5 cells assessed as cell growth at 5 mM by SRB assay; conditions: read-out: Activity
# NCI-H522 = assay: Antiproliferative activity against human NCI-H522 cells assessed as cell growth at 5 mM by SRB assay; conditions: read-out: Activity
# A549 = assay: Antiproliferative activity against human A549 cells assessed as cell growth at 5 uM by SRB assay; conditions: read-out: Activity
# 786-0 = assay: Antiproliferative activity against human 786-0 cells by SRB assay
# KM12 [5] = assay: Antiproliferative activity against human KM12 cells assessed as cell growth at 0.5 uM by SRB assay; conditions: read-out: Activity
# TK-10 [6] = assay: Antiproliferative activity against human TK10 cells assessed as cell growth at 5 uM by SRB assay; conditions: read-out: Activity
# DU-145 = assay: Antiproliferative activity against human DU145 cells assessed as cell growth at […] by SRB assay; conditions: read-out: Activity
# IGROV-1 = assay: Antiproliferative activity against human IGROV1 cells by SRB assay
# ACHN = assay: Antiproliferative activity against human ACHN cells assessed as cell growth at 50 uM by SRB assay; conditions: read-out: Activity
# OVCAR-3 = assay: Antiproliferative activity against human OVCAR-3 cells assessed as cell growth at 500 uM by SRB assay; conditions: read-out: Activity
# HCT-15 = assay: Antiproliferative activity against human HCT15 cells assessed as cell growth at 50 uM by SRB assay; conditions: read-out: Activity
# NCI-H460 = assay: Antiproliferative activity against human NCI-H460 cells assessed as cell growth at 50 uM by SRB assay; conditions: read-out: Activity
# [7] = Antiproliferative activity against human Hs 578T cells assessed as cell growth at […] by SRB assay; conditions: read-out: Activity
# SW-620 [8] = assay: Antiproliferative activity against human SW620 cells assessed as cell growth at 5 mM by SRB assay; conditions: read-out: Activity
# CCRF-CEM [9] = assay: Antiproliferative activity against human CCRF-CEM cells assessed as cell growth at 50 uM by SRB assay; conditions: read-out: Activity
# SF-539 [10] = assay: Antiproliferative activity against human SF539 cells assessed as cell growth at 0.5 uM by SRB assay; conditions: read-out: Activity
# SF-268 = assay: Antiproliferative activity against human SF268 cells assessed as cell growth at 5 uM by SRB assay; conditions: read-out: Activity
# TK-10 [11] = assay: Antiproliferative activity against human TK10 cells by SRB assay
# UO-31 [12] = assay: Antiproliferative activity against human UO31 cells assessed as cell growth at 50 uM by SRB assay; conditions: read-out: Activity
# RXF 393 = assay: Antiproliferative activity against human RXF393 cells assessed as cell growth at 0.5 uM by SRB assay; conditions: read-out: Activity
# EKVX [13] = assay: Antiproliferative activity against human EKVX cells by SRB assay
# SF-539 [14] = assay: Antiproliferative activity against human SF539 cells assessed as cell growth at 500 uM by SRB assay; conditions: read-out: Activity
# MOLT-4 = assay: Antiproliferative activity against human MOLT4 cells assessed as cell growth at 50 uM by SRB assay; conditions: read-out: Activity
# CAKI-1 = assay: Antiproliferative activity against human Caki1 cells assessed as cell growth at 50 uM by SRB assay; conditions: read-out: Activity
# [15] = Antiproliferative activity against human Hs 578T cells by SRB assay
# A498 = assay: Antiproliferative activity against human A498 cells assessed as cell growth at 5 uM by SRB assay; conditions: read-out: Activity
# SW-620 [16] = assay: Antiproliferative activity against human SW620 cells assessed as cell growth at 500 uM by SRB assay; conditions: read-out: Activity
# SNB-19 [17] = assay: Antiproliferative activity against human SNB19 cells assessed as cell growth at 500 uM by SRB assay; conditions: read-out: Activity
# OVCAR-8 = assay: Antiproliferative activity against human OVCAR8 cells assessed as cell growth at 500 uM by SRB assay; conditions: read-out: Activity
# SK-OV-3 = assay: Antiproliferative activity against human SKOV3 cells assessed as cell growth at 500 uM by SRB assay; conditions: read-out: Activity
# SK-MEL-2 [18] = assay: Antiproliferative activity against human SK-MEL-2 cells assessed as cell growth at 0.5 uM by SRB assay; conditions: read-out: Activity
# UO-31 [19] = assay: Antiproliferative activity against human UO31 cells assessed as cell growth at 0.5 uM by SRB assay; conditions: read-out: Activity
# OVCAR-4 [20] = assay: Antiproliferative activity against human OVCAR4 cells assessed as cell growth at 0.5 uM by SRB assay; conditions: read-out: Activity
# SNB-19 [21] = assay: Antiproliferative activity against human SNB19 cells assessed as cell growth at 5 uM by SRB assay; conditions: read-out: Activity
# EKVX [22] = assay: Antiproliferative activity against human EKVX cells assessed as cell growth at 5 uM by SRB assay; conditions: read-out: Activity
# OVCAR-4 [23] = assay: Antiproliferative activity against human OVCAR4 cells by SRB assay
# [24] = read-out: LC50 (the source's name)
# [25] = read-out: pLC50 (the source's name) (converted)
smiles,measurement,setting,value
O=C(/C=C/c1ccc(O)c(O)c1)OCCc1ccc(O)c(O)c1,GI50,UO-31 [1]; read-out: GI50,1.75 µM
same,CC50,UO-31 [1]; [24],> 50 µM
same,TGI,UO-31 [1]; read-out: TGI,21.1 µM
same,GI50,UO-31 [1]; read-out: pGI50 (converted),1.66 µM
same,CC50,UO-31 [1]; [25],> 50.1 µM
same,TGI,UO-31 [1]; read-out: pTGI (converted),20.9 µM
same,growth at 500 µM,HCT-116,65%
same,growth at 500 µM,KM12 [2],59%
same,growth at 500 µM,SR,20%
same,GI50,SK-MEL-2 [3]; read-out: GI50,3.02 µM
same,CC50,SK-MEL-2 [3]; [24],> 50 µM
same,TGI,SK-MEL-2 [3]; read-out: TGI,23.7 µM
same,GI50,SK-MEL-2 [3]; read-out: pGI50 (converted),3.02 µM
same,CC50,SK-MEL-2 [3]; [25],> 50.1 µM
same,TGI,SK-MEL-2 [3]; read-out: pTGI (converted),23.4 µM
same,GI50,CCRF-CEM [4],0.75 µM
same,CC50,CCRF-CEM [4]; [24],> 50 µM
same,TGI,CCRF-CEM [4]; read-out: TGI,5.33 µM
same,CC50,CCRF-CEM [4]; [25],> 50.1 µM
same,TGI,CCRF-CEM [4]; read-out: pTGI (converted),5.37 µM
same,growth at 5000 µM,SK-MEL-5,-1%
same,growth at 5000 µM,NCI-H522,-30%
same,growth at 5 µM,A549,97%
same,GI50,786-0; read-out: GI50,13.5 µM
same,CC50,786-0; [24],> 50 µM
same,TGI,786-0; read-out: TGI,> 50 µM
same,GI50,786-0; read-out: pGI50 (converted),13.5 µM
same,CC50,786-0; [25],> 50.1 µM
same,TGI,786-0; read-out: pTGI,> 50.1 µM
same,growth at 0.5 µM,KM12 [5],97%
same,growth at 5 µM,TK-10 [6],95%
same,growth,DU-145,-22%
same,GI50,IGROV-1; read-out: GI50,2.86 µM
same,CC50,IGROV-1; [24],> 50 µM
same,TGI,IGROV-1; read-out: TGI,24.4 µM
same,GI50,IGROV-1; read-out: pGI50 (converted),2.88 µM
same,CC50,IGROV-1; [25],> 50.1 µM
same,TGI,IGROV-1; read-out: pTGI (converted),15.5 µM
same,growth at 50 µM,ACHN,89%
same,growth at 500 µM,OVCAR-3,50%
same,growth at 50 µM,HCT-15,78%
same,growth at 50 µM,NCI-H460,100%
same,growth,[7],9%
same,growth at 5000 µM,SW-620 [8],19%
same,growth at 50 µM,CCRF-CEM [9],60%
same,growth at 0.5 µM,SF-539 [10],90%
same,growth at 5 µM,SF-268,91%
same,GI50,TK-10 [11]; read-out: GI50,28.1 µM
same,CC50,TK-10 [11]; [24],> 50 µM
same,TGI,TK-10 [11]; read-out: TGI,> 50 µM
same,GI50,TK-10 [11]; read-out: pGI50 (converted),28.2 µM
same,CC50,TK-10 [11]; [25],> 50.1 µM
same,TGI,TK-10 [11]; read-out: pTGI,> 50.1 µM
same,growth at 50 µM,UO-31 [12],82%
same,growth at 0.5 µM,RXF 393,88%
same,GI50,EKVX [13]; read-out: GI50,14.9 µM
same,CC50,EKVX [13]; [24],> 50 µM
same,TGI,EKVX [13]; read-out: TGI,> 50 µM
same,GI50,EKVX [13]; read-out: pGI50 (converted),14.8 µM
same,CC50,EKVX [13]; [25],> 50.1 µM
same,TGI,EKVX [13]; read-out: pTGI,> 50.1 µM
same,growth at 500 µM,SF-539 [14],55%
same,growth at 50 µM,MOLT-4,89%
same,growth at 50 µM,CAKI-1,88%
same,GI50,[15]; read-out: GI50,9.75 µM
same,CC50,[15]; [24],> 50 µM
same,TGI,[15]; read-out: TGI,> 50 µM
same,GI50,[15]; read-out: pGI50 (converted),9.77 µM
same,CC50,[15]; [25],> 50.1 µM
same,TGI,[15]; read-out: pTGI,> 50.1 µM
same,growth at 5 µM,A498,81%
same,growth at 500 µM,SW-620 [16],64%
same,growth at 500 µM,SNB-19 [17],79%
same,growth at 500 µM,OVCAR-8,64%
same,growth at 500 µM,SK-OV-3,79%
same,growth at 0.5 µM,SK-MEL-2 [18],86%
same,growth at 0.5 µM,UO-31 [19],98%
same,growth at 0.5 µM,OVCAR-4 [20],99%
same,growth at 5 µM,SNB-19 [21],95%
same,growth at 5 µM,EKVX [22],84%
same,GI50,OVCAR-4 [23],7.37 µM
same,CC50,OVCAR-4 [23]; [24],> 50 µM
same,TGI,OVCAR-4 [23]; read-out: TGI,> 50 µM
same,CC50,OVCAR-4 [23]; [25],> 50.1 µM
same,TGI,OVCAR-4 [23]; read-out: pTGI,> 50.1 µM
